From patent publication US20220132839A1, “MOSQUITO ATTRACTANT COMPOSITIONS” (UNIVERSITY OF WASHINGTON, priority 2019, published 2022)
Entries after “also recorded” stand apart in the source; their conditions may differ.

Tests used:
Aedes mosquitoes = test: GC-EAD antennal responses, Aedes mosquitoes from the field
Text: (§1) Electroantennogram signals were filtered and amplified (100×; 0.1-500 Hz) using an A-M 1800 amplifier (Sequim, Wash., USA) connected to a personal computer via a BNC-2090A analog-to-digital board (National Instruments, Austin, Tex., USA) and digitized at 20 Hz using WinEDR software (Strathclyde Electrophysiology Software, Glasgow, UK). A Hum Bug noise eliminator (Quest Scientific, Vancouver, Canada) was used to decrease electrical noise. The antennal responses to peaks eluting from the GC were measured for each mosquito preparation, and each peak and mosquito species. Bioactive peaks were those that elicited strong EAD responses, corresponding to deflections beyond the average noise floor of the baseline EAD signal. Responses by each individual preparation were used for Principal Component Analysis (Ade4 package, R). The responses of eight different mosquito species were tested to the scent extracts of three orchid species (n=8 mosquito species for P. obtusata; n=4 mosquito species each for P. stricta and P. huronensis; with 3-17 replicates per mosquito species per orchid, for a total of 109 GC-EAD experiments).
Individual mosquitoes were isolated in Falcon™ tubes (Thermo Fisher Scientific, Pittsburgh, Pa., USA) covered with a piece of fine mesh. They were maintained in a climatic chamber, as previously described, and identified immediately before running the experiment. Carbon dioxide delivered through a pad (Genesee Scientific, San Diego, Calif., USA) was used to briefly anesthetize mosquitoes before transferring them on ice for the dissection. The head was excised and the tip (i.e., one segment) of each antenna was cut off with fine scissors under a binocular microscope (Carl Zeiss, Oberkochen, Germany). The head was then mounted on an electrode composed of a silver wire 0.01″ (A-M Systems, Carlsbord, Wash., USA) and a borosilicate pulled capillary (Sutter Instrument Company, Novato, Calif., USA) filled with a 1:3 mix of saline (L. B. Thien, F. Utech, The mode of pollination in Habenaria obtusata (Orchidaceae). American Journal of Botany 57, 1031-1035 (1970) and electrode gel (Parker Laboratories, Fairfield, N.J., USA) in order to avoid the preparation to desiccate during the experiment. The head was mounted by the neck on the reference electrode. The preparation was then moved to the GC-EAD with the tips of the antennae inserted under the microscope (Optiphot-2, Nikon, Tokyo, Japan) into a recording electrode, that was identical to the reference electrode. The mounted antennae were oriented at 90° from the main airline which was carrying filtered air (Praxair, Danbury, Conn., USA) and volatiles eluting from the Gas-Chromatograph to the preparation via a 200° C. transfer line (EC-05; Syntech GmbH, Buchenbach, Germany). Five microliters of the orchid extract were injected into the Gas Chromatograph with Flame Ionization Detection (Agilent 7820A GC, Agilent Technologies; DB5 column, J&W Scientific, Folsom, Calif., USA). The oven program was the same as the one used for the GC-MS analyses of the scent extracts. The transfer line from the GC to the preparation was set to 200° C.

[1] = system: Ae. increpitus mosquito antennal lobe (AL) glomeruli; test: Two-photon calcium imaging (Fluo4) of the antennal lobe, Ae. increpitus; type: in vivo; settings: for LC2 glomerulus response: single odorants
Method: Odor-evoked responses in the Ae. increpitus mosquito antennal lobe (AL) with nine female mosquitoes at the beginning of the season when mosquitoes were relatively young (as defined by wing and scale appearance). Calcium imaging experiments were conducted using application of the calcium indicator Fluo4 to the mosquito brain and using a stage that allows simultaneous calcium imaging and tethered flight. The mosquito was cooled on ice and transferred to a Peltier-cooled holder that enables the mosquito to head to be fixed to the stage using ultraviolet glue. The custom stage permits the superfusion of saline to the head capsule and space for movement by the wings and proboscis. Once the mosquito was fixed to the stage, a window in its head was cut to expose the brain, and the brain was continuously superfused with physiological saline. Next, the perineural sheath was gently removed from the AL using fine forceps and 75 μL of the Fluo4 solution—made by […] of Fluo4 in 30 μL Pluronic F-127 and then subsequently diluted in 950 μL of mosquito physiological saline—was pipetted to the holder allowing the brain to be completely immersed in the dye. Mosquitoes were kept in the dark at 15° C. for 1.5 h (the appropriate time for adequate penetration of the dye into the tissue), after which the brain was washed 3 times with physiological saline. After the rinse, mosquitoes were kept in the dark at room temperature for approximately 10-20 min. before imaging.
Wing stroke amplitudes were acquired and analyzed using a custom camera-based computer vision system at frame rates of 100 Hz, where the mosquito was illuminated with infrared LEDs (880 nm) and images were collected with an infrared-sensitive camera synched to the two-photon system. Stimulus-evoked initiation of flight and changes in the amplitude of the wing-stroke envelope were characterized for each odor stimulus. Calcium-evoked responses in the AL were imaged using the Prairie Ultima IV two-photon excitation microscope (Prairie Technologies) and Ti-Sapphire laser (Chameleon Ultra; Coherent). Experiments were performed at a depth of 40 μm from the ventral surface of the AL, allowing the calcium dynamics from approximately 18-22 glomeruli to be repeatedly imaged across preparations. Images were collected at 2 Hz, and for each odor stimulus images were acquired for 35 s, starting 10 s before the stimulus onset. Imaging data were extracted in Fiji/ImageJ and imported into Matlab (v2017; Mathworks, Natick, Mass.) for Gaussian filtering (2×2 pixel; σ=1.5-3) and alignment using a single frame as the reference at a given imaging depth and subsequently registered to every frame to within ¼ pixel. Trigger-averaged ΔF/F was used for comparing glomerular responses between odor stimuli. […]

Ae. aegypti AL glomeruli = test: Two-photon calcium imaging (PUb-GCaMP6s) of the antennal lobe, Ae. aegypti; type: in vivo; settings: for LC2 glomerulus response: single odorants; for AM2 response with increasing dose: different concentrations; for AM2 glomerulus response: odor stimulation; for effect of GABA-receptor antagonists on AM2 response to the P. obtusata scent / effect of GABA-receptor antagonists on LC2 and AM2 responses to the P. stricta scent: 1 μM CGP54626, 10 μM picrotoxin focally applied together on to the AL; for glomerular responses in the AL: imaged at 40 μm depth, particularly AL3 and LC2 glomeruli for the mixture; for AM2 response to lilac aldehyde/nonanal mixtures / LC2 response to lilac aldehyde/nonanal mixtures: lilac aldehyde and nonanal at different concentration ratios
Text: A total of twenty preparations were used: 10 for single odorant and orchid mixture experiments; 6 for ratio experiments; and 4 for experiments using GABA-receptor antagonists. […] The expression of GCaMP occurred in glia, local interneurons, and projection neurons. […] Thus, in the calcium imaging experiments care was taken to image from the central regions of the glomeruli and avoid the sheaths and external glomerular loci. […] Relatedly, GCaMP6s expression is very high in AL local interneurons and projection neurons (PNs), such that during odor stimulation the PNs and axonal processes can often be imaged, and 3D reconstructions can be take place through simultaneous optical sections with odor stimulation. Nonetheless, the glomerular responses were assumed to be a function of multiple cell types.
Similar to experiments with Ae. increpitus, the majority the mosquitoes were UV-glued to the stage to allow free movement of their wings and proboscis; however, for experiments using GABA-receptor antagonists the proboscis was glued to the stage for additional stability. Once the mosquito was fixed to the stage, a window in its head was cut to expose the brain, and the brain was continuously superfused with physiological saline.
Thus a provisional atlas was created with female mosquitoes (n=6) that allowed for cross-reference of the imaged glomeruli and comparison of their positions and structures to those described in the atlas. This was accomplished via clear glomerular boundaries, especially during odor stimulation, and the distinct odorant tuning of glomeruli throughout the depths of the AL (e.g., AM2 responsive to DEET; LC2 and AL3 responsive to nonanal; PD3 responsive to geosmin; and MD2 responsive to CO2) that allowed 3D registration across preparations and subsequent warping and referencing with the atlas.
Saline and pharmacological agents. The saline was made based on the Beyenbach and Masia recipe (L. B. Thien, F. Utech, The mode of pollination in Habenaria obtusata (Orchidaceae). American Journal of Botany 57, 1031-1035 (1970)) and contained 150.0 mM NaCl, 25.0 mM N-2-hydroxyethyl-piperazine-N′-2-ethanesulfonic acid (HEPES), 5.0 mM sucrose, 3.4 mM KCl, 1.8 mM NaHCO3, 1.7 mM CaCl2, and 1.0 mM MgCl2. The pH was adjusted to 7 with 1 M NaOH. […] […] A drip system comprising two 100 mL reservoirs—one containing the GABA receptor antagonists, and the other saline—converged on the two-channel temperature controller to facilitate rapid switching from normal physiological saline solution to the antagonists and back. Antagonists were superfused directly into the holder near to the opening of the head capsule and recorded neuropil. The odor-evoked responses were first recorded under normal physiological saline solution and then repeated under GABA receptor antagonists diluted in normal saline solution, and finally the normal saline wash. All calcium imaging data were statistically analyzed using Kruskal-Wallis tests with multiple comparisons and visualized using Principal Components Analysis. Analyses were performed in Matlab (v2017; Mathworks, Natick, Mass.).
Olfactory stimuli were delivered to the mosquito by pulses of air diverted through a 2 mL cartridge containing a piece of filter paper bearing the odor stimulus (2 An air line provided gentle and constant charcoal-filtered air at 1 m/s to the antennae allowing continuous ventilation to prevent adaptation of the olfactory receptor cells. The stimulus output was positioned in the air line 2 cm from and orthogonal to the mosquito antennae. For testing different ratios of lilac aldehyde and nonanal, two syringes bearing different concentrations of the odorants were used and positioned such that the outputs were positioned in the same location in the air stream. […]

Culiseta mosquitoes = test: GC-EAD antennal responses, Culiseta mosquitoes; design: species or system Culiseta sp.; settings: peaks of the P. obtusata scent
Text: as §1
Individual mosquitoes were isolated in Falcon™ tubes (Thermo Fisher Scientific, Pittsburgh, Pa., USA) covered with a piece of fine mesh. They were maintained in a climatic chamber, as previously described, and identified immediately before running the experiment. […]

[2] = scents of P. stricta and P. huronensis, Ae. increpitus, Ae. communis, Ae. canadensis and Culiseta sp.
[3] = odorant tuning used for glomerular registration

## O=Cc1ccccc1 [benzaldehyde]
Aedes mosquitoes; [2]
  antennal responses (GC-EAD): all responded

## CCCCCCCCO [1-octanol]
[1]
  LC2 glomerulus response: strongest response
Ae. aegypti AL glomeruli
  LC2 glomerulus response: strongest response

## CC1CCCC2(C)CCCCC12O (centres unmarked) [geosmin, reference compound]
Ae. aegypti AL glomeruli; [3]
  PD3 glomerulus response: responsive

## C=C1CCC2CC1C2(C)C (stereo not drawn) [β-pinene]
Aedes mosquitoes; peaks of the P. obtusata scent
  antennal responses (GC-EAD): evoked antennal responses

## CCN(CC)C(=O)c1cccc(C)c1 [DEET, N,N-diethyl-meta-toluamide, reference compound]
Ae. aegypti AL glomeruli
  AM2 response with increasing dose: significant increases in response with increasing dose
  AM2 glomerulus response: responsive

## C=CC(=C)CCC=C(C)C [β-myrcene]
Aedes mosquitoes; [2]
  antennal responses (GC-EAD): all responded

## picrotoxin [reference compound]
Ae. aegypti AL glomeruli
  effect of GABA-receptor antagonists on AM2 response to the P. obtusata scent: the effect of nonanal was blocked
  effect of GABA-receptor antagonists on LC2 and AM2 responses to the P. stricta scent: blocked the symmetrical inhibition by nonanal and lilac aldehyde

## C=C1C2CCC(C2)C1(C)C (centres unmarked) [camphene]
Aedes mosquitoes; peaks of the P. obtusata scent
  antennal responses (GC-EAD): evoked antennal responses

## C[C@H](NC[C@H](O)CP(=O)(O)CC1CCCCC1)c1ccc(Cl)c(Cl)c1 [CGP54626, reference compound]
Ae. aegypti AL glomeruli
  effect of GABA-receptor antagonists on AM2 response to the P. obtusata scent: the effect of nonanal was blocked
  effect of GABA-receptor antagonists on LC2 and AM2 responses to the P. stricta scent: blocked the symmetrical inhibition by nonanal and lilac aldehyde

## C=CC1(C)CCC(C(C)C=O)O1 (centres unmarked) [lilac aldehyde, 5-dimethyl-5-ethenyl-2-tetrahydrofuranacetaldehydes]
Aedes mosquitoes; high concentration in the scent of P. stricta, lesser in P. huronensis, antennae of Ae. increpitus and Ae. communis
  antennal responses (GC-EAD): relatively strong responses
Aedes mosquitoes; peaks of the P. obtusata scent
  antennal responses (GC-EAD): evoked antennal responses
Aedes mosquitoes; [2]
  antennal responses (GC-EAD): all responded
Ae. aegypti AL glomeruli
  AM2 response with increasing dose: significant increases in response with increasing dose
  glomerular responses in the AL: strong responses
  AM2 response to lilac aldehyde/nonanal mixtures: increased AM2 activation
  LC2 response to lilac aldehyde/nonanal mixtures: suppressed the response of LC2 to nonanal
  AM2 glomerulus response: strongest response; also recorded: responsive
Ae. aegypti AL glomeruli; mixtures with lilac aldehyde scaled to other Platanthera species, compared with P. obtusata, Kruskal-Wallis p<0.05
  AM2 glomerulus response to orchid mixtures: significant increase in AM2 responses
Ae. aegypti AL glomeruli; mixtures with lilac aldehyde scaled to other Platanthera species, nonanal as in the P. obtusata mixture, Kruskal-Wallis p<0.05
  LC2 glomerulus response to orchid mixtures: significant suppression of LC2 response

## CCCCCCCC=O [octanal]
[1]
  LC2 glomerulus response: strongest response
Aedes mosquitoes; peaks of the P. obtusata scent
  antennal responses (GC-EAD): evoked antennal responses
Ae. aegypti AL glomeruli
  glomerular responses in the AL: strong responses
  LC2 glomerulus response: strongest response

## CC1=CCC2CC1C2(C)C (stereo not drawn) [α-pinene]
Aedes mosquitoes; peaks of the P. obtusata scent
  antennal responses (GC-EAD): evoked antennal responses

## O=C=O [CO2, reference compound]
Ae. aegypti AL glomeruli; [3]
  MD2 glomerulus response: responsive

## CCCCCCCCC=O [nonanal]
[1]; odor stimulation
  AM2 glomerulus response: often exhibited inhibition
[1]
  LC2 glomerulus response: strongest response
Aedes mosquitoes; peaks of the P. obtusata scent
  antennal responses (GC-EAD): evoked antennal responses; also recorded: consistent responses and one of the strongest relative responses
Aedes mosquitoes; [2]
  antennal responses (GC-EAD): all responded
Ae. aegypti AL glomeruli
  glomerular responses in the AL: strong responses
  AM2 response to lilac aldehyde/nonanal mixtures: caused suppression of AM2 responses to lilac aldehyde
  LC2 response to lilac aldehyde/nonanal mixtures: increasing the activation of LC2
  AM2 glomerulus response: often exhibited inhibition
  LC2 glomerulus response: responsive; also recorded: strongest response
Ae. aegypti AL glomeruli; [3]
  AL3 glomerulus response: responsive
Culiseta mosquitoes
  antennal responses (GC-EAD): very little response

## C=CC(C)(O)CCC=C(C)C (racemic) [linalool]
Aedes mosquitoes; [2]
  antennal responses (GC-EAD): all responded
